{
  "source": "patent EP3067353A1",
  "about": "“A PROCESS FOR THE PREPARATION OF SOLIFENACIN SALTS AND THEIR INCLUSION INTO PHARMACEUTICAL DOSAGE FORMS” (KRKA, D.D., Novo Mesto, priority 2008, dated 2010)",
  "origin": "cited, not measured here",
  "key": {"[1]": {"settings": "relative humidity of 70% (room temperature)"}},
  "note": "Where a name gives a salt, the structure may show the parent alone.",
  "data": [
    {"smiles": "O=C(O[C@H]1CN2CCC1CC2)N1CCc2ccccc2[C@@H]1c1ccccc1", "note": "[hydrochloride]", "values": [
      {"measurement": "hygroscopicity", "setting": "[1]", "result": "so hydroscopic as to deliquence"},
      {"measurement": "impurities during long term storage", "result": "increase of impurities during long term storage"}
    ]}
  ]
}
